Patent publication US20250163009A1, “BENZOTHIA(DIA)ZEPINE COMPOUNDS FOR TREATMENT OF HBV AND HDV” (Assembly Biosciences, Inc., priority 2022, published 2025)
pEC50: −log10 of the molar value.

System: HBV
Assay: HepG2-NTCP infection protocol, HBeAg quantification by ECL-ELISA
Format: cell-based
Conditions: HepG2-NTCP cells infected with HBV at MOI 50; compound 24 hours, then 72 hours; HBeAg in supernatant
Experimental: HepG2 cells expressing the sodium taurocholate cotransporting polypeptide (HepG2-NTCP) were maintained in culture using HepG2-NTCP growth medium (DMEM (HyClone, Cat #SH30243.02) supplemented with 10% FBS, 150 μg/mL G418 (Alfa Aesar, Cat #J62671), 50 U/mL penicillin-streptomycin (Invitrogen, Cat #15140-122), and 0.5 μg/mL blasticidin (Sigma, Cat #15205)). Prior to infection, the cells were washed twice with 1×DPBS (Invitrogen, Cat #14190-136) and treated with 3 mL of 0.05% trypsin (Invitrogen, Cat #25200-056) to dissociate the cells. Following dissociation, 10 mL of HepG2-NTCP growth medium was added to the cells to neutralize the trypsin and the cells were then centrifuged at 1,300 rpm for 5 minutes. Following centrifugation, the cells were resuspended in 10 mL of HepG2-NTCP growth medium, counted, and then centrifuged at 1,300 rpm for 5 minutes. The cell pellet was resuspended in DMEM supplemented with 5% FBS, 50 U/mL penicillin-streptomycin, 4% PEG-8000 (Hamilton Research, Cat #HR2-515), and 1% DMSO (Sigma, Cat #D4540) to a density of 5.6×10^5 cells/mL and infected with HBV at an MOI of 50. Immediately after infection, 90 μL of the cell/HBV mixture was added to a 96-well plate containing 10 μL of compound and incubated at 37° C. for 24 hours (2% final DMSO concentration). After the incubation, the infection media was removed and replaced with DMEM supplemented with 5% FBS, 50 U/mL penicillin-streptomycin, and 1% DMSO and incubated for an additional 72 hours. At the end of the incubation, the plates were spun at 1,800 rpm for 8 minutes and the supernatant was removed for HBeAg quantification using electrochemiluminescence enzyme-linked immunosorbent assays (ECL-ELISA).
To conduct the HBeAg ECL-ELISA, Lumitrack high-binding 96-well plates (Greiner, Cat #655074) were treated with 625 ng/mL HBeAg mAb (Biocheck, Cat #70426) in 1×DPBS for 2 hours at 25° C. with shaking. The HBeAg mAb solution was then removed and the plates treated with 1×DPBS containing 0.5% bovine serum albumin (BSA) (Sigma, Cat #A7030-100 g) for 2 hours at 25° C. with shaking. The HBeAg-coated plates were then washed 4 times with 1×DPBS containing 0.05% Tween 20 (DPBS-T) (Thermo Fisher Scientific, Cat #J61544-K2). Following the wash, 90 μL of HRP-conjugated antibody (Fitzgerald, Cat #61-H10K), diluted 1:8,000 in 1×DPBS-T containing 0.5% BSA, was added to the HBeAg-coated plates along with 10 μL of sample. The plates were then incubated for 2 hours at 25° C. with shaking. Following the incubation, the sample was then removed and 200 μL of 1×PBS-T was added and the plates were incubated for 10 minutes at 25° C. with shaking. The plates were then washed 6 times with 1×PBS-T and blotted dry. 80 μL of ECL substrate (Millipore, Cat #WBKLS0500) was then added to the plate and the luminescence was measured using a Tecan M1000 Pro plate reader.

pEC50 | Structure (SMILES)
> 7.00 | CCCCC1CN(C2CCC(F)(F)CC2)c2cc(SC)c(O/C=C(\F)C(=O)O)cc2S(=O)(=O)N1C (single isomer, unassigned) [Example 2a]
6.00 to 7.00 | CCCCC1CN(C2CCC(F)(F)CC2)c2cc(SC)c(O/C=C(\F)C(=O)O)cc2S(=O)(=O)N1C (single isomer, unassigned) [Example 2b]

Same assay, conditions: Hepatitis B virus, HepG2-NTCP cells infected with HBV at MOI 50; compound 24 hours, then 72 hours; HBeAg in supernatant

pEC50 | Structure (SMILES)
6.00 to 7.00 | CCCCC1CN(C2CCOC2)c2cc(SC)c(O/C=C(\F)C(=O)O)cc2S(=O)(=O)N1C (stereo not drawn) [Example 50]
6.00 to 7.00 | CCCCC1CN(c2ccn(C)n2)c2cc(SC)c(O/C=C(\F)C(=O)O)cc2S(=O)(=O)N1C (stereo not drawn) [Example 53]
5.30 to 6.00 | CCCC[C@H]1CN(C2CCN(C)C2)c2cc(SC)c(O/C=C(\F)C(=O)O)cc2S(=O)(=O)N1C (stereo in doubt) [Example 55]
5.30 to 6.00 | CCCCC1CN(C2CCNCC2)c2cc(SC)c(O/C=C(\F)C(=O)O)cc2S(=O)(=O)N1C (stereo not drawn) [Example 46]
6.00 to 7.00 | CCCCC1CN(c2nccs2)c2cc(SC)c(O/C=C(\F)C(=O)O)cc2S(=O)(=O)N1C (stereo not drawn) [Example 49]
5.30 to 6.00 | CCCCC1CN(C2CC3CCC2C3)c2cc(SC)c(O/C=C(\F)C(=O)O)cc2S(=O)(=O)N1C (stereo not drawn) [Example 45]
6.00 to 7.00 | CCCCC1CN(Cc2ccc(F)c(F)c2)c2cc(SC)c(O/C=C(\F)C(=O)OCC)cc2S(=O)(=O)N1C (stereo not drawn) [Example 42]
> 7.00 | CCCCC1CN(Cc2ccc(F)c(F)c2)c2cc(SC)c(O/C=C(\F)C(=O)O)cc2S(=O)(=O)N1C (stereo not drawn) [Example 43]
> 7.00 | CCCCC1CN(C(C)c2ccccc2)c2cc(SC)c(O/C=C(\F)C(=O)O)cc2S(=O)(=O)N1C (stereo not drawn) [Example 52]
5.30 to 6.00 | CCCCC1CN(C(=O)c2ccccc2)c2cc(SC)c(O/C=C(\F)C(=O)O)cc2S(=O)(=O)N1C (stereo not drawn) [Example 41]
5.30 to 6.00 | CCCC[C@H]1CN([C@@H]2CCN(C)C2)c2cc(SC)c(O/C=C(\F)C(=O)O)cc2S(=O)(=O)N1C (relative stereo) [Example 54]
5.30 to 6.00 | CCCCC1CN(C2CCN(C(C)=O)CC2)c2cc(SC)c(O/C=C(\F)C(=O)O)cc2S(=O)(=O)N1C (stereo not drawn) [Example 48]
> 7.00 | CCCCC1CN(Cc2cccc(F)c2)c2cc(SC)c(O/C=C(\F)C(=O)O)cc2S(=O)(=O)N1C (stereo not drawn) [Example 40]
5.30 to 6.00 | CCCCC1CN(C2CCC(N)CC2)c2cc(SC)c(O/C=C(\F)C(=O)O)cc2S(=O)(=O)N1C (stereo not drawn) [Example 51]
> 7.00 | CCCCC1CN([C@H]2CC[C@H](OC)CC2)c2cc(SC)c(O/C=C(\F)C(=O)O)cc2S(=O)(=O)N1C (stereo partly drawn) [Example 56]
6.00 to 7.00 | CCCCC1CN(C(C)c2ccccc2)c2cc(SC)c(O/C=C(\F)C(=O)OCC)cc2S(=O)(=O)N1C (stereo not drawn) [Example 44]
5.30 to 6.00 | CCCCC1CN(C2CCN(C)CC2)c2cc(SC)c(O/C=C(\F)C(=O)O)cc2S(=O)(=O)N1C (stereo not drawn) [Example 47]

The next lines start with the compound.

Structure (SMILES) | pEC50
CCCCC1CN(Cc2ccc(F)cc2)c2cc(SC)c(O/C=C(\F)C(=O)OCC)cc2S(=O)(=O)N1C (stereo not drawn) [Example 12] | 6.00 to 7.00
CCCCC1CN(Cc2ccccc2)c2cc(SC)c(O/C=C(\F)C(=O)O)cc2S(=O)(=O)N1C (stereo not drawn) [Example 28] | > 7.00
CCCCC1CN(C2CCCOC2)c2cc(SC)c(O/C=C(\F)C(=O)OCC)cc2S(=O)(=O)N1C (stereo not drawn) [Example 21] | 6.00 to 7.00
CCCCC1CN(CC2CCC(F)(F)CC2)c2cc(SC)c(O/C=C(\F)C(=O)O)cc2S(=O)(=O)N1C (stereo not drawn) [Example 36] | > 7.00
CC#CCN1CC(CCCC)N(C)S(=O)(=O)c2cc(O/C=C(\F)C(=O)O)c(SC)cc21 (stereo not drawn) [Example 27] | > 7.00
CCCCC1CN(C2CCC(OC)CC2)c2cc(SC)c(O/C=C(\F)C(=O)OCC)cc2S(=O)(=O)N1C (stereo not drawn) [Example 18] | > 7.00
CCCCC1CN(C2CCCCC2)c2cc(SC)c(O/C=C(\F)C(=O)O)cc2S(=O)(=O)N1C (stereo not drawn) [Example 16] | > 7.00
CCCCC1CN(C2CCOC2)c2cc(SC)c(O/C=C/C(=O)O)cc2S(=O)(=O)N1C (stereo not drawn) [Example 22] | 5.30 to 6.00
CCCCC1CN(C2CCC(F)CC2)c2cc(SC)c(O/C=C(\F)C(=O)OCC)cc2S(=O)(=O)N1C (stereo not drawn) [Example 29] | 6.00 to 7.00
CCCCC1CN(c2ccccn2)c2cc(SC)c(O/C=C/C(=O)O)cc2S(=O)(=O)N1C (stereo not drawn) [Example 5] | 6.00 to 7.00
CCCCC1CN(C2CCC(F)(F)CC2)c2cc(SC)c(O/C=C/C(=O)O)cc2S(=O)(=O)N1C (stereo not drawn) [Example 3] | > 7.00
CCCCC1CN(c2cccnc2)c2cc(SC)c(O/C=C/C(=O)O)cc2S(=O)(=O)N1C (stereo not drawn) [Example 4] | 5.30 to 6.00
CCCCC1CN(C(=O)c2ccccc2)c2cc(SC)c(O/C=C(\F)C(=O)OCC)cc2S(=O)(=O)N1C (stereo not drawn) [Example 39] | 5.30 to 6.00
CCCCC1CN(C2CCOCC2)c2cc(SC)c(O/C=C/C(=O)O)cc2S(=O)(=O)N1C (stereo not drawn) [Example 23] | 6.00 to 7.00
CCCCC1CN(C2CCOCC2)c2cc(SC)c(O/C=C(\F)C(=O)OCC)cc2S(=O)(=O)N1C (stereo not drawn) [Example 19] | 6.00 to 7.00
CCCCC1CN(CC2CCC(F)(F)CC2)c2cc(SC)c(O/C=C(\F)C(=O)OCC)cc2S(=O)(=O)N1C (stereo not drawn) [Example 35] | 6.00 to 7.00
CCCCC1CN(c2ncccn2)c2cc(SC)c(O/C=C(\F)C(=O)O)cc2S(=O)(=O)N1C (stereo not drawn) [Example 24] | 6.00 to 7.00
CCCCC1CN(C2CCC(F)(F)CC2)c2cc(SC)c(O/C=C(\F)C(=O)O)cc2S(=O)(=O)N1C (stereo not drawn) [Example 2, (Z)-3-((3-butyl-5-(4,4-difluorocyclohexyl)-2-methyl-7-(methylthio)-1,1-dioxido-2,3,4,5-tetrahydrobenzo[f][1,2,5]thiadiazepin-8-yl)oxy)-2-fluoroacrylic acid] | > 7.00

Structure (SMILES) | pEC50
C#Cc1ccc(N2CC(CCCC)N(C)S(=O)(=O)c3cc(O/C=C/C(=O)O)c(SC)cc32)cc1 (stereo not drawn) [Example 9] | > 7.00
CCCCC1CN(C2CCOCC2)c2cc(SC)c(O/C=C(\F)C(=O)O)cc2S(=O)(=O)N1C (stereo not drawn) [Example 26] | 6.00 to 7.00
CCCCC1CN(Cc2ccc(SC)cc2)c2cc(SC)c(O/C=C(\F)C(=O)OCC)cc2S(=O)(=O)N1C (stereo not drawn) [Example 13] | 6.00 to 7.00
CCCCC1CN(Cc2cccc(F)c2)c2cc(SC)c(O/C=C(\F)C(=O)OCC)cc2S(=O)(=O)N1C (stereo not drawn) [Example 37] | > 7.00
CCCCC1CN(Cc2ccc(F)cc2)c2cc(SC)c(O/C=C(\F)C(=O)O)cc2S(=O)(=O)N1C (stereo not drawn) [Example 10] | > 7.00
CCCCC1CN(C2CCCC2)c2cc(SC)c(O/C=C/C(=O)O)cc2S(=O)(=O)N1C (stereo not drawn) [Example 14] | 6.00 to 7.00
CCCCC1CN(C2CCCC2)c2cc(SC)c(O/C=C(\F)C(=O)O)cc2S(=O)(=O)N1C (stereo not drawn) [Example 32] | > 7.00
CCCCC1CN(C2CCC(O)CC2)c2cc(SC)c(O/C=C(\F)C(=O)O)cc2S(=O)(=O)N1C (stereo not drawn) [Example 31] | 6.00 to 7.00
CCCCC1CN(Cc2cc(F)ccc2F)c2cc(SC)c(O/C=C(\F)C(=O)OCC)cc2S(=O)(=O)N1C (stereo not drawn) [Example 33] | > 7.00
CCCCC1CN(Cc2ccccc2)c2cc(SC)c(O/C=C/C(=O)O)cc2S(=O)(=O)N1C (stereo not drawn) [Example 15] | 6.00 to 7.00
CCCCC1CN(Cc2cc(F)ccc2F)c2cc(SC)c(O/C=C(\F)C(=O)O)cc2S(=O)(=O)N1C (stereo not drawn) [Example 34] | > 7.00
CCCCC1CN(c2ncccn2)c2cc(SC)c(O/C=C(\F)C(=O)OCC)cc2S(=O)(=O)N1C (stereo not drawn) [Example 20] | > 7.00
CCCCC1CN(C2CCC(F)CC2)c2cc(SC)c(O/C=C(\F)C(=O)O)cc2S(=O)(=O)N1C (stereo not drawn) [Example 30] | > 7.00
CCCCC1CN(c2ccc(N3CCCC3)cc2)c2cc(SC)c(O/C=C/C(=O)O)cc2S(=O)(=O)N1C (stereo not drawn) [Example 8] | > 7.00
CCCCC1CN(Cc2cccc(SC)c2)c2cc(SC)c(O/C=C(\F)C(=O)OCC)cc2S(=O)(=O)N1C (stereo not drawn) [Example 38] | 6.00 to 7.00
CCCCC1CN(Cc2ccc(SC)cc2)c2cc(SC)c(O/C=C(\F)C(=O)O)cc2S(=O)(=O)N1C (stereo not drawn) [Example 17] | > 7.00
CCCCC1CN(C2CCCOC2)c2cc(SC)c(O/C=C(\F)C(=O)O)cc2S(=O)(=O)N1C (stereo not drawn) [Example 25] | > 7.00
